From US20210392882A1, “METHODS AND COMPOSITIONS FOR IMPROVED INSECT REPELLENCY” (Board of Trustees of Michigan State University, priority 2020, published 2021)

Tested on: mosquito sodium channel (AaNav1-1)
Assay: Two-electrode voltage clamp of sodium channels expressed in Xenopus oocytes
Assay type: cell-based, Aedes aegypti
Settings: 20 ms step-depolarization before and after exposure; FIG. 4J
Source text: FIG. 4A-4J illustrate that pyrethrin-induced repellency is synergized by (E)-β-farnesene via activation of both AaOr31 and sodium channels. […] FIG. 4B graphically illustrates repellency elicited by pyrethrin I (P-I) and pyrethrin II (P-II) at 10^−3 dilution in Orlando (wild-type) and orco^−/− mosquitoes (n=9 cages for Orlando control from 2 batches of mosquitoes; n=10 cages for orco−/− control from 2 batches of mosquitoes, P-I: U=31, n=11 cages for Orlando; and n=12 cages for orco−/− from 3 batches of mosquitoes, P-II: U=15; n=14 cages for Orlando; and n=15 cages for orco−/− from 4 batches of mosquitoes). […] The effect of pyrethrum was measured 10 minutes after its application. Pyrethrum-induced tail currents were recorded during a 100-pulse train of 5 milliseconds step depolarizations from −120 to −10 mV with 5 milliseconds inter-pulse intervals (Du et al. (2013)). The percentage of pyrethrum-modified channels was calculated using the following equation: M=[Itail/(Eh−ENa)]/[INa/(Et−ENa)]×100; where Itail is the maximal tail current amplitude, Eh is the potential to which the membrane is repolarized, ENa is the reversal potential for sodium currents determined from the current-voltage curve, INa is the amplitude of the peak current during depolarization before pyrethrum exposure, and Et is the potential of the step depolarization. […]

SMILES: CC1(C)C2CCC1(C)C(O)C2 (single isomer, unassigned; (-)) [(−)-borneol]
- effect on peak current and channel gating: no effects
